According to patent publication US12239623B2, “Sleep-improving compositions and methods of use” (priority 2023, dated 2025):

Columns and labels:
Type in all cases: in vivo
[1] = test system: male BALB/c mice; assay: Sleep duration and sleep latency in mice (Example 1); conditions: pentobarbital 42 mg/kg, combos together with caffeine
Protocol: (§1) Five male BALB/c mice per treatment arm (age: 8 weeks; weight: […]) were housed in a controlled environment with a 12:12-h light-dark cycle at 22° C. and were provided with mice chow and water ad libitum. The mice were fasted for 24 hours prior to the study, which was conducted between 1 pm and 5 pm and under the National Institutes of Health's Guidelines for the Care and Use of Laboratory Animals and approved by the Ethics Committee of the Medipol University. The mice were divided into eight groups and anesthetized with urethane (1.25 g/kg, i.p.; Sigma U2500) and carefully placed in a stereotaxic frame. Rectal temperatures were maintained between 36.5° C. and 37.0° C. using a feedback-controlled-heating system (507221F, Harvard Apparatus, ABD). Lidocaine (2.0%) was applied on the incision area to prevent any occurrence of pain. A midline incision was made on the skin along the sagittal suture of the skull. A part of the cranium overlying the left parietal cortex was removed using a dental drill. […]
(§2) After the administration, the mice were placed in individual cages and subjected to measurements of sleep latency and duration. Brain electrical activity were monitored and recorded for a total of 2 hours. […]

[2] = test system: male mice; assay: Serum melatonin by ELISA in male mice (Example 3); conditions: FIG. 3, saline control about 33 pg/ml, caffeine 7.5 mg/kg, composition given with caffeine
Protocol: (§3) Both OVX female mice and male mice were divided into three groups: group treated with saline, group treated with 7.5 mg/kg caffeine, and group treated with a combination of 7.5 mg/kg caffeine and the magnesium glycinate, L-theanine, GABA, SAMe and propyl gallate composition. […] Levels of serum melatonin were measured by ELISA kits.

[3] = test system: OVX female mice; assay: Serum melatonin by ELISA in OVX female mice (Example 3); conditions: FIG. 3, saline control about 11 pg/ml, caffeine 7.5 mg/kg, composition given with caffeine
Protocol: as §3

[4] = test system: GABAB receptor 2; assay: Western blot of brain GABAB receptor 2 in caffeine-treated mice (Example 1); conditions: FIG. 1C, male BALB/c mice brain, reduced from 100%, caffeine 7.5 mg/kg i.p., combos given together with caffeine, after two hours
Protocol: as §1, with “drill. Ag—AgCl ball electrodes were placed on the left somatomotor cortex (1 mm anterior/1.5 mm lateral from bregma; 3 mm posterior/1.5 mm lateral from bregma) and the reference electrode was attached to the left foot for an ECoG recording. Group 1 were treated with saline. To induce sleep disturbance, 7.5 mg/kg caffeine was injected intraperitoneally at minute 15 of recordings to groups 2-8.” for “drill.”

[5] = test system: 5-HT1A; assay: Western blot of brain 5-HT1A in caffeine-treated mice (Example 1); conditions: FIG. 1G, male BALB/c mice brain, reduced from 100%, caffeine 7.5 mg/kg i.p., combos given together with caffeine, after two hours
Protocol: as §1, with “drill. Ag—AgCl ball electrodes were placed on the left somatomotor cortex (1 mm anterior/1.5 mm lateral from bregma; 3 mm posterior/1.5 mm lateral from bregma) and the reference electrode was attached to the left foot for an ECoG recording. Group 1 were treated with saline. To induce sleep disturbance, 7.5 mg/kg caffeine was injected intraperitoneally at minute 15 of recordings to groups 2-8.” for “drill.”

[6] = test system: GluA1; assay: Western blot of brain GluA1 in caffeine-treated mice (Example 1); conditions: FIG. 1D, male BALB/c mice brain, reduced from 100%, caffeine 7.5 mg/kg i.p., combos given together with caffeine, after two hours
Protocol: as §1, with “drill. Ag—AgCl ball electrodes were placed on the left somatomotor cortex (1 mm anterior/1.5 mm lateral from bregma; 3 mm posterior/1.5 mm lateral from bregma) and the reference electrode was attached to the left foot for an ECoG recording. Group 1 were treated with saline. To induce sleep disturbance, 7.5 mg/kg caffeine was injected intraperitoneally at minute 15 of recordings to groups 2-8.” for “drill.”

[7] = test system: GluN1; assay: Western blot of brain GluN1 in caffeine-treated mice (Example 1); conditions: FIG. 1E, male BALB/c mice brain, reduced from 100%, caffeine 7.5 mg/kg i.p., combos given together with caffeine, after two hours
Protocol: as §1, with “drill. Ag—AgCl ball electrodes were placed on the left somatomotor cortex (1 mm anterior/1.5 mm lateral from bregma; 3 mm posterior/1.5 mm lateral from bregma) and the reference electrode was attached to the left foot for an ECoG recording. Group 1 were treated with saline. To induce sleep disturbance, 7.5 mg/kg caffeine was injected intraperitoneally at minute 15 of recordings to groups 2-8.” for “drill.”

[8] = test system: male BALB/c mice; assay: EEG amplitude and frequency in caffeine-treated mice (Example 1); conditions: caffeine 7.5 mg/kg, compositions in combination with caffeine
Protocol: as §1, §2

[9] = test system: GluN2A; assay: Western blot of brain GluN2A in caffeine-treated mice (Example 1); conditions: FIG. 1F, male BALB/c mice brain, reduced from 100%, caffeine 7.5 mg/kg i.p., combos given together with caffeine, after two hours
Protocol: as §1, with “drill. Ag—AgCl ball electrodes were placed on the left somatomotor cortex (1 mm anterior/1.5 mm lateral from bregma; 3 mm posterior/1.5 mm lateral from bregma) and the reference electrode was attached to the left foot for an ECoG recording. Group 1 were treated with saline. To induce sleep disturbance, 7.5 mg/kg caffeine was injected intraperitoneally at minute 15 of recordings to groups 2-8.” for “drill.”

[10] = test system: GABAB receptor 1; assay: Western blot of brain GABAB receptor 1 in caffeine-treated mice (Example 1); conditions: FIG. 1B, male BALB/c mice brain, reduced from 100%, caffeine 7.5 mg/kg i.p., combos given together with caffeine, after two hours
Protocol: as §1, with “drill. Ag—AgCl ball electrodes were placed on the left somatomotor cortex (1 mm anterior/1.5 mm lateral from bregma; 3 mm posterior/1.5 mm lateral from bregma) and the reference electrode was attached to the left foot for an ECoG recording. Group 1 were treated with saline. To induce sleep disturbance, 7.5 mg/kg caffeine was injected intraperitoneally at minute 15 of recordings to groups 2-8.” for “drill.”

[11] = test system: GABAA receptor 2; assay: Western blot of brain GABAA receptor 2 in caffeine-treated mice (Example 1); conditions: FIG. 1A, male BALB/c mice brain, reduced from 100%, caffeine 7.5 mg/kg i.p., combos given together with caffeine, after two hours
Protocol: as §1, with “drill. Ag—AgCl ball electrodes were placed on the left somatomotor cortex (1 mm anterior/1.5 mm lateral from bregma; 3 mm posterior/1.5 mm lateral from bregma) and the reference electrode was attached to the left foot for an ECoG recording. Group 1 were treated with saline. To induce sleep disturbance, 7.5 mg/kg caffeine was injected intraperitoneally at minute 15 of recordings to groups 2-8.” for “drill.”

Row | Structure (SMILES) | sleep duration ([1]; FIG. 1J) | sleep latency ([1]; FIG. 1K) | melatonin level [2] | melatonin level [3] | percentage of GABAB receptor 2 [4] | percentage of 5-HT1A receptor [5] | percentage of GluA1 receptor [6] | percentage of GluN1 receptor [7] | EEG amplitude ([8]; FIG. 1H, from about 100 mV, within 75 minutes) | EEG frequency ([8]; FIG. 1I, from about 100 spikes, in 90 minutes) | percentage of GluN2A receptor [9] | percentage of GABAB receptor 1 [10] | percentage of GABAA receptor 2 [11]
1 | CCCC(C)C1(CC)C(=O)NC(=O)NC1=O (stereo not shown) [pentobarbital] | about 50 minutes | about 2 minutes |  |  |  |  |  |  |  |  |  |  | 
2 | Cn1c(=O)c2c(ncn2C)n(C)c1=O [caffeine] |  |  | about 12 pg/ml | about 8 pg/ml | about 28% | about 20% | about 26% | about 35% | about 70 mV | about 200 spikes | about 20% | about 18% | about 25%
